Target: T1, Macrophage migration inhibitory factor (Homo sapiens) (UniProt P14174)
T1 sequence (whole entry): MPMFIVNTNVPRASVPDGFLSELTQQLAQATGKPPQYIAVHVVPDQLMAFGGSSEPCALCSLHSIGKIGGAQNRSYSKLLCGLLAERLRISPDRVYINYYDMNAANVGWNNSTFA
Assay: LYTAC activity at ASGPR/MIF (unknown origin) by cell based assay

Activity: > 1 µM
Compound: CC(=O)N[C@H]1[C@H](OCCOCCOCCNC(=O)CCOCC(COCCC(=O)NCCOCCOCCO[C@@H]2O[C@H](CO)[C@H](O)[C@H](O)[C@H]2NC(C)=O)(COCCC(=O)NCCOCCOCCO[C@@H]2O[C@H](CO)[C@H](O)[C@H](O)[C@H]2NC(C)=O)NC(=O)CNC(=O)CCCOc2ccc3nc(-c4cn(-c5ccc(O)c(F)c5)nn4)ccc3c2)O[C@H](CO)[C@H](O)[C@@H]1O

— ChEMBL document CHEMBL5120891, “Beyond Proteolysis-Targeting Chimeric Molecules: Designing Heterobifunctional Molecules Based on Functional Effectors” (J Med Chem, 2022)
